# In the supplement of paper PMC10331698:
# ± gives the standard deviation of the averaged measurements.
# Columns and labels:
# Test in all cases: level (log10 ratio to DMSO vehicle control); higher = higher biomarker level / cell amount than vehicle control
# Details in all cases: in DMSO
# [1] = compound: COC(=O)CCC(F)(F)C(F)(F)C(F)(F)C(F)(F)F [Methyl 2H,2H,3H,3H-perfluoroheptanoate]
# Procedure: (§1)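 BioMAP Diversity Plus panel of 12 human primary cell co-culture systems (3C, 4H, LPS, SAg, BT, BF4T, BE3C, CASM3C, HDF3CGF, KF3CT, MyoF, Mphg). Compounds were added 1 h before stimulation and left for 24 h (MyoF 48 h; BT 72 h for soluble read-outs or 6 d for IgG). Biomarkers were read by ELISA, cytotoxicity by SRB, PBMC viability and proliferation by Alamar Blue. Each well value was divided by the mean of 8 DMSO control wells on the same plate and log10 transformed; duplicate blinded samples were tested at 4 concentrations.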
# [2] = compound: O=C(O)C(F)(F)OC(F)(F)C(F)(F)OC(F)(F)C(=O)O [Perfluoro-3,6-dioxaoctane-1,8-dioic acid]
# Procedure: as §1
# [3] = compound: C=CC(F)(F)C(F)(F)C(F)(F)C(F)(F)C(F)(F)C(F)(F)C(F)(F)C(F)(F)C=C [1,8-Divinylperfluorooctane]
# Procedure: as §1
# Perfluoropropanoic acid = compound: O=C(O)C(F)(F)C(F)(F)F [Perfluoropropanoic acid]
# Procedure: as §1
# [4] = compound: FC(F)C(F)(F)COCC1CO1 [((2,2,3,3-Tetrafluoropropoxy)methyl)oxirane]
# Procedure: as §1
# [5] = compound: OCC(F)(F)OC(F)(F)C(F)(F)OC(F)(F)CO [1H,1H,8H,8H-Perfluoro-3,6-dioxaoctane-1,8-diol]
# Procedure: as §1
Test System,level (log10) ([1]; 6700 nM),level (log10) ([1]; 20000 nM),level (log10) ([1]; 60000 nM),level (log10) ([2]; 6700 nM),level (log10) ([2]; 20000 nM),level (log10) ([2]; 60000 nM),level (log10) ([3]; 6700 nM),level (log10) ([3]; 20000 nM),level (log10) (Perfluoropropanoic acid; 6700 nM),level (log10) (Perfluoropropanoic acid; 20000 nM),level (log10) (Perfluoropropanoic acid; 60000 nM),level (log10) ([4]; 6700 nM),level (log10) ([4]; 20000 nM),level (log10) ([4]; 60000 nM),level (log10) ([5]; 6700 nM),level (log10) ([5]; 20000 nM),level (log10) ([5]; 60000 nM)
HDF3CGF:CD54/ICAM-1,-0.0095 ± 0.0092,0.012 ± 0.0028,-0.0025 ± 0.028,-0.0095 ± 0.0092,0.0015 ± 0.00071,-0.0085 ± 0.0035,0.003 ± 0.028,0.0475 ± 0.028,0.007 ± 0.016,0.0065 ± 0.005,-0.0045 ± 0.00071,0.001 ± 0.013,0.006 ± 0.0014,-0.007 ± 0.018,0.005 ± 0.0028,-0.0165 ± 0.005,-0.01 ± 0.014
HDF3CGF:CD106/VCAM-1,-0.0395 ± 0.033,-0.0135 ± 0.053,-0.0235 ± 0.066,-0.0075 ± 0.00071,-0.0085 ± 0.016,-0.0035 ± 0.05,-0.028 ± 0.021,-0.016 ± 0.017,-0.0555 ± 0.0035,-0.018 ± 0.0014,0.0175 ± 0.052,-0.001 ± 0.016,-0.0075 ± 0.023,-0.0295 ± 0.037,-0.0145 ± 0.011,-0.0145 ± 0.026,0.0115 ± 0.018
HDF3CGF:CXCL8/IL-8,-0.006 ± 0.013,-0.01 ± 0.024,-0.0035 ± 0.0021,-0.0005 ± 0.0021,0.0135 ± 0.005,0.017 ± 0.0042,-0.0095 ± 0.0021,-0.002 ± 0.0085,-0.0055 ± 0.0021,0.007 ± 0.011,0.017 ± 0.0057,-0.0145 ± 0.016,-0.004 ± 0.0014,0.005 ± 0.0085,0.0115 ± 0.023,0.009 ± 0.024,0.015 ± 0.028
HDF3CGF:CXCL9/MIG,0.014,0.0255 ± 0.021,-0.0225 ± 0.013,-0.0185 ± 0.016,0.0135 ± 0.0092,0.0085 ± 0.005,0.006 ± 0.0057,-0.001 ± 0.024,-0.019 ± 0.0014,-0.01 ± 0.014,-0.0195 ± 0.026,-0.001 ± 0.013,0.0115 ± 0.023,-0.009 ± 0.028,-0.0035 ± 0.015,-0.015 ± 0.037,0.0345 ± 0.067
HDF3CGF:CXCL10/IP-10,-0.011 ± 0.0085,0.006 ± 0.016,-0.026 ± 0.0071,0.0105 ± 0.023,-0.004 ± 0.011,-0.0085 ± 0.023,0.0205 ± 0.035,0.017 ± 0.035,-0.005 ± 0.0085,-0.001 ± 0.0028,0.02 ± 0.0071,-0.0085 ± 0.032,-0.033 ± 0.0057,-0.0175 ± 0.023,0.004 ± 0.0014,-0.0085 ± 0.00071,-0.011 ± 0.021
HDF3CGF:CXCL11/I-TAC,-0.002 ± 0.013,0.0215 ± 0.0021,-0.0055 ± 0.011,0.0105 ± 0.011,0.0235 ± 0.012,0.012 ± 0.0042,0.0135 ± 0.013,0.016 ± 0.037,-0.0325 ± 0.032,-0.018 ± 0.033,-0.0215 ± 0.057,0.027 ± 0.013,-0.0005 ± 0.0035,0.003 ± 0.0057,0.0085 ± 0.00071,0.0055 ± 0.0064,0.014 ± 0.031
HDF3CGF:Collagen I,0.0615 ± 0.071,0.0465 ± 0.016,0.051 ± 0.041,-0.011 ± 0.068,-0.0135 ± 0.053,0.0405 ± 0.015,0.043 ± 0.054,0.0595 ± 0.016,0 ± 0.038,-0.031 ± 0.1,0.0375 ± 0.012,-0.03 ± 0.0042,-0.038 ± 0.013,0.022 ± 0.11,-0.025 ± 0.018,-0.023 ± 0.0042,0.02 ± 0.092
HDF3CGF:Collagen III,0.0065 ± 0.016,0.0095 ± 0.00071,0.0105 ± 0.015,-0.0115 ± 0.013,0.002 ± 0.011,0.0535 ± 0.012,0.001 ± 0.024,-0.0125 ± 0.029,-0.01 ± 0.1,-0.0045 ± 0.032,0.048 ± 0.013,-0.002 ± 0.037,-0.0115 ± 0.00071,-0.0035 ± 0.011,-0.0035 ± 0.0078,-0.0105 ± 0.0078,0.0165 ± 0.05
HDF3CGF:EGFR,-0.0045 ± 0.0078,0.0105 ± 0.029,-0.0055 ± 0.053,-0.001 ± 0.0057,0.0145 ± 0.0021,0.0245 ± 0.035,0.033,0.005 ± 0.041,-0.0215 ± 0.035,-0.0145 ± 0.022,0.0055 ± 0.019,0.012 ± 0.014,0.0065 ± 0.005,0.029 ± 0.041,0.0035 ± 0.013,0.0175 ± 0.025,0.0205 ± 0.054
HDF3CGF:M-CSF,-0.0125 ± 0.0064,-0.008 ± 0.013,0.002 ± 0.011,-0.007 ± 0.014,-0.003 ± 0.0028,-0.0045 ± 0.00071,-0.0335 ± 0.042,-0.0085 ± 0.053,0.0065 ± 0.067,-0.042 ± 0.027,-0.0295 ± 0.042,0.009,-0.001 ± 0.033,-0.001 ± 0.013,-0.0025 ± 0.0078,-0.01 ± 0.0071,0.01 ± 0.0099
HDF3CGF:MMP-1,0 ± 0.011,-0.003 ± 0.018,-0.004 ± 0.025,-0.004 ± 0.013,-0.003 ± 0.014,-0.0025 ± 0.018,-0.0035 ± 0.005,0.0165 ± 0.012,-0.0065 ± 0.0064,0.0045 ± 0.013,0.0035 ± 0.015,0.0085 ± 0.012,0.0175 ± 0.0064,0.0125 ± 0.023,-0.0055 ± 0.0092,-0.0115 ± 0.023,-0.006
HDF3CGF:PAI-I,0.0005 ± 0.0035,-0.0055 ± 0.0092,0.002 ± 0.021,0.0055 ± 0.015,0.0135 ± 0.029,0.0295 ± 0.012,0 ± 0.013,-0.0065 ± 0.012,-0.07 ± 0.1,-0.005 ± 0.12,-0.002 ± 0.04,0.0065 ± 0.016,0.0065 ± 0.0064,0.0035 ± 0.011,-0.013 ± 0.023,-0.017 ± 0.017,-0.0205 ± 0.0092
HDF3CGF:Proliferation 72hr,0.011 ± 0.0057,0.013 ± 0.0057,0.0705 ± 0.044,0.0035 ± 0.0035,0.008 ± 0.016,0.012 ± 0.035,0.103 ± 0.028,-0.046 ± 0.028,0.006 ± 0.0042,-0.01 ± 0.045,0.0325 ± 0.0078,-0.054 ± 0.0057,-0.023 ± 0.0042,-0.099 ± 0.0014,-0.001 ± 0.031,0.0325 ± 0.044,-0.053 ± 0.031
HDF3CGF:SRB,0.0005 ± 0.005,-0.001 ± 0.057,0.0735 ± 0.091,0.009 ± 0.041,-0.0035 ± 0.015,-0.0125 ± 0.012,0.025 ± 0.051,0.069 ± 0.14,-0.003 ± 0.0085,-0.0175 ± 0.011,-0.0335 ± 0.032,0.004 ± 0.0057,-0.002 ± 0.02,-0.011 ± 0.1,-0.031 ± 0.0057,0.0405 ± 0.033,-0.0505 ± 0.016
HDF3CGF:TIMP-1,-0.0015 ± 0.022,0.008 ± 0.014,0.014 ± 0.011,-0.037 ± 0.0099,-0.009 ± 0.0028,0.041 ± 0.051,0.014 ± 0.016,0.008 ± 0.017,-0.0195 ± 0.016,-0.0045 ± 0.0064,0.038 ± 0.025,0.0075 ± 0.023,0.002 ± 0.011,0 ± 0.055,-0.007 ± 0.025,-0.0015 ± 0.016,0.0065 ± 0.023
HDF3CGF:TIMP-2,0.0295 ± 0.019,-0.0065 ± 0.03,0.0195 ± 0.043,-0.0145 ± 0.035,-0.0075 ± 0.011,0.001 ± 0.027,0.025 ± 0.013,-0.0115 ± 0.012,-0.0495 ± 0.028,-0.0155 ± 0.05,-0.037 ± 0.073,-0.018 ± 0.0057,-0.008 ± 0.0071,-0.0275 ± 0.0078,-0.002 ± 0.016,0.002 ± 0.0071,-0.011 ± 0.021
KF3CT:CCL2/MCP-1,-0.0185 ± 0.035,-0.0515 ± 0.026,0.013 ± 0.048,-0.0135 ± 0.016,-0.011 ± 0.0057,-0.0045 ± 0.013,-0.0165 ± 0.016,0.009 ± 0.042,-0.0395 ± 0.0078,-0.018 ± 0.028,0.0055 ± 0.06,-0.0245 ± 0.0021,-0.0045 ± 0.026,0.012 ± 0.013,-0.0075 ± 0.026,-0.022 ± 0.011,0.0235 ± 0.061
